Results as given in patent US20260365671A1, “HETEROCYCLIC COMPOUND” (Takeda Pharmaceutical Company Limited, priority 2022, published 2026).

Legend:
[1] = biological target: T1, NLRP3 inflammasome (Homo sapiens, UniProt Q96P20); assay: IL-1β TR-FRET assay (THP-1 cells differentiated to macrophages with IFN-γ, LPS primed, ATP activated; HTRF); format: cell-based; conditions: THP-1 macrophages, 50 ng/mL LPS priming, compound 30 min, 20 mM ATP 2 hours
T1 construct: IL-1beta HTRF
How it was run: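 THP-1 cells differentiated with 25 ng/mL IFN-γ for 24 h, primed with 50 ng/mL LPS in serum-free medium for 24 h, then treated with compounds for 30 min before 20 mM ATP activation for 2 h at 37 °C. Secreted IL-1β quantified by HTRF; IC50 from logistic fit of % inhibition.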

[2] = test system: NF-κB pathway; assay: TNF-α assay (THP-1 cells differentiated to macrophages with IFN-γ, NF-κB pathway activated with LPS; ELISA); format: cell-based, Human; conditions: Homo sapiens, THP-1, THP-1 macrophages, compound 30 min, 50 ng/mL LPS 3 hours
How it was run: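 THP-1 cells differentiated with 25 ng/mL IFN-γ for 24 h, then 30 min with compounds in serum-free medium. NF-κB activated with 50 ng/mL LPS, 3 h at 37 °C. Supernatant TNF-α by ELISA; IC50 from four-parameter logistic fit of % inhibition.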

T1 sequence (Q96P20 whole entry): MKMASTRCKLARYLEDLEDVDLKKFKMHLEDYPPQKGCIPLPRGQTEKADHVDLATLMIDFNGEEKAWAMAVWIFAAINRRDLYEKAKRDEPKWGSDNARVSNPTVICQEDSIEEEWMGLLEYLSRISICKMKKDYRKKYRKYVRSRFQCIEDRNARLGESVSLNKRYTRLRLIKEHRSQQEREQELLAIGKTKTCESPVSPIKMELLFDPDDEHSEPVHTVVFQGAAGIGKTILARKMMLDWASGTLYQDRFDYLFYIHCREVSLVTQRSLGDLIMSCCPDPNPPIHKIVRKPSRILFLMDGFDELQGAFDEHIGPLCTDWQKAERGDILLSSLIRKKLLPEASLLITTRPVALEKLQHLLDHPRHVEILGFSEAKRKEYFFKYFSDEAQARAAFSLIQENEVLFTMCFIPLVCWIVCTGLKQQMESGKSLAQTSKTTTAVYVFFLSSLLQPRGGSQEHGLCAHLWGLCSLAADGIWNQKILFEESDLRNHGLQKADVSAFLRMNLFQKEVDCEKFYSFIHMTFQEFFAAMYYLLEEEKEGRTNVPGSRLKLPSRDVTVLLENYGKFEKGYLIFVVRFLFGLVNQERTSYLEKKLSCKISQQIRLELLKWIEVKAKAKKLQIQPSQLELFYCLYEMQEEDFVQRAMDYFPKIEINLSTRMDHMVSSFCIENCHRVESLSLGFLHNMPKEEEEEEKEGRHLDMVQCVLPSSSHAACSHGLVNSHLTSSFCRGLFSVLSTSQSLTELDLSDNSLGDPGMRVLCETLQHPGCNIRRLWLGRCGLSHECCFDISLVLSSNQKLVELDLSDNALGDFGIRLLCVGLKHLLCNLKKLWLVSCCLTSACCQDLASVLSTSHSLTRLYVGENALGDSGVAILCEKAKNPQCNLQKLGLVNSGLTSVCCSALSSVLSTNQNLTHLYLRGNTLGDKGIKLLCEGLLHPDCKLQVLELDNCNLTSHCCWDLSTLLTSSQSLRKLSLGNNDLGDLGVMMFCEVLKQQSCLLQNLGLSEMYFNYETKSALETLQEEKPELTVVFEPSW

Row | IC50 [1] [µM] | IC50 [2] [µM] | SMILES
1 | 1 | > 10 | COC(C)(C)CNc1nc2nn(-c3c(C)cc(C)cc3O)cc2s1 [Example 114, 2-{5-[(2-methoxy-2-methylpropyl)amino]-2H-pyrazolo[3,4-d][1,3]thiazol-2-yl}-3,5-dimethylphenol]
2 | 0.49 | > 30 | Cc1cc(C)c(-n2cc3sc(NC4CCC(=O)N(C)C4)nc3n2)c(O)c1 (centres unmarked) [Example 115, 5-{[2-(2-hydroxy-4,6-dimethylphenyl)-2H-pyrazolo[3,4-d][1,3]thiazol-5-yl]amino}-1-methylpiperidin-2-one]
3 | 1.1 | > 30 | Cc1cc(C)c(-n2cc3sc(NC[C@@H]4CCCO4)nc3n2)c(O)c1 [Example 116, 3,5-dimethyl-2-[5-({[(2S)-oxolan-2-yl]methyl}amino)-2H-pyrazolo[3,4-d][1,3]thiazol-2-yl]phenol]
4 | 1.3 | > 10 | Cc1cc(C)c(-n2cc3sc(NC[C@H]4CCCO4)nc3n2)c(O)c1 [Example 117, 3,5-dimethyl-2-[5-({[(2R)-oxolan-2-yl]methyl}amino)-2H-pyrazolo[3,4-d][1,3]thiazol-2-yl]phenol]
5 | 0.78 | > 30 | Cc1cc(C)c(-n2cc3sc(NC4CCCN(C)C4=O)nc3n2)c(O)c1 (centres unmarked) [Example 118, 3-{[2-(2-hydroxy-4,6-dimethylphenyl)-2H-pyrazolo[3,4-d][1,3]thiazol-5-yl]amino}-1-methylpiperidin-2-one]
6 | 0.72 | > 30 | CO[C@H](C)CNc1nc2nn(-c3c(C)cc(C)cc3O)cc2s1 [Example 120, 2-(5-{[(2R)-2-methoxypropyl]amino}-2H-pyrazolo[3,4-d][1,3]thiazol-2-yl)-3,5-dimethylphenol]
7 | 1.2 | > 30 | Cc1cc(C)c(-n2cc3sc(NC4CCN(S(C)(=O)=O)CC4)nc3n2)c(O)c1 [Example 128, 2-(5-{[1-(methanesulfonyl)piperidin-4-yl]amino}-2H-pyrazolo[3,4-d][1,3]thiazol-2-yl)-3,5-dimethylphenol]
8 | 2.3 | > 10 | Cc1cc(C)c(-n2cc3sc(NC4CCN(CC(F)F)CC4)nc3n2)c(O)c1 [Example 129, 2-(5-{[1-(2,2-difluoroethyl)piperidin-4-yl]amino}-2H-pyrazolo[3,4-d][1,3]thiazol-2-yl)-3,5-dimethylphenol]
9 | 1.1 | > 30 | COC(=O)N1CCC(Nc2nc3nn(-c4c(C)cc(C)cc4O)cc3s2)CC1 [Example 130, methyl 4-{[2-(2-hydroxy-4,6-dimethylphenyl)-2H-pyrazolo[3,4-d][1,3]thiazol-5-yl]amino}piperidine-1-carboxylate]
10 | 0.58 | > 30 | CNC(=O)N1CCC(Nc2nc3nn(-c4c(C)cc(C)cc4O)cc3s2)CC1 [Example 131, 4-{[2-(2-hydroxy-4,6-dimethylphenyl)-2H-pyrazolo[3,4-d][1,3]thiazol-5-yl]amino}-N-methylpiperidine-1-carboxamide]
11 | 1 | > 30 | CCC(=O)N1CCC(Nc2nc3nn(-c4c(C)cc(C)cc4O)cc3s2)CC1 [Example 132, 1-(4-{[2-(2-hydroxy-4,6-dimethylphenyl)-2H-pyrazolo[3,4-d][1,3]thiazol-5-yl]amino}piperidin-1-yl)propan-1-one]
12 | 0.88 | > 30 | CC(=O)N1CCC(Nc2nc3nn(-c4c(C)cc(C)cc4O)cc3s2)CC1 [Example 133, 1-(4-{[2-(2-hydroxy-4,6-dimethylphenyl)-2H-pyrazolo[3,4-d][1,3]thiazol-5-yl]amino}piperidin-1-yl)ethan-1-one]
13 | 1.5 | > 10 | COc1cc(C)c(-n2cc3sc(N[C@@H]4CN(C)C[C@H]4F)nc3n2)c(O)c1 [Example 134, 2-(5-{[(3R,4R)-4-fluoro-1-methylpyrrolidin-3-yl]amino}-2H-pyrazolo[3,4-d][1,3]thiazol-2-yl)-5-methoxy-3-methylphenol]
14 | 0.09 | > 10 | COc1cc(C)c(-n2cc3sc(N[C@H]4CN(C)C[C@@H]4F)nc3n2)c(O)c1 [Example 135, 2-(5-{[(3S,4S)-4-fluoro-1-methylpyrrolidin-3-yl]amino}-2H-pyrazolo[3,4-d][1,3]thiazol-2-yl)-5-methoxy-3-methylphenol]
15 | 3.3 | > 30 | Cc1cc(C)c(-n2cc3sc(N[C@H]4CCN(C)C(=O)C4)nc3n2)c(O)c1 [Example 136, (4S)-4-{[2-(2-hydroxy-4,6-dimethylphenyl)-2H-pyrazolo[3,4-d][1,3]thiazol-5-yl]amino}-1-methylpiperidin-2-one]
16 | 1.1 | > 30 | Cc1cc(C)c(-n2cc3sc(N[C@@H]4CCN(C)C(=O)C4)nc3n2)c(O)c1 [Example 137, (4R)-4-{[2-(2-hydroxy-4,6-dimethylphenyl)-2H-pyrazolo[3,4-d][1,3]thiazol-5-yl]amino}-1-methylpiperidin-2-one]

Row | IC50 [1] [µM] | IC50 [2] [µM] | SMILES
17 | 0.6 | > 10 | Cc1cc(C)c(-n2cc3sc(NCC4(F)CCC4)nc3n2)c(O)c1 [Example 138, 2-(5-{[(1-fluorocyclobutyl)methyl]amino}-2H-pyrazolo[3,4-d][1,3]thiazol-2-yl)-3,5-dimethylphenol]
18 | 0.28 | > 10 | Cc1cc(C)c(-n2cc3sc(NCC(C)(F)F)nc3n2)c(O)c1 [Example 139, 2-{5-[(2,2-difluoropropyl)amino]-2H-pyrazolo[3,4-d][1,3]thiazol-2-yl}-3,5-dimethylphenol]
19 | 0.4 | > 30 | Cc1cc(C)c(-n2cc3sc(NC(C)C(C)O)nc3n2)c(O)c1 (centres unmarked) [Example 140, 2-{5-[(3-hydroxybutan-2-yl)amino]-2H-pyrazolo[3,4-d] [1,3]thiazol-2-yl}-3,5-dimethylphenol]
20 | 0.059 | > 30 | Cc1cc(O)c(-n2cc3sc(NC[C@@H](C)O)nc3n2)c(C2CC2(F)F)c1 (stereo partly drawn) [Example 141, 3-(2,2-difluorocyclopropyl)-2-(5-{[(2R)-2-hydroxypropyl]amino}-2H-pyrazolo[3,4-d][1,3]thiazol-2-yl)-5-methylphenol]
21 | 0.85 | > 30 | Cc1cc(C)c(-n2cc3sc(N[C@H]4COC[C@H]4F)nc3n2)c(O)c1 [Example 144, 2-(5-{[(3R,4R)-4-fluorooxolan-3-yl]amino}-2H-pyrazolo [3,4-d][1,3]thiazol-2-yl)-3,5-dimethylphenol or 2-(5-{[(3S,4S)-4-fluorooxolan-3-yl]amino}-2H-pyrazolo[3,4-d][1,3]thiazol-2-yl)-3,5-dimethylphenol (tR1)]
22 | 0.38 | > 30 | Cc1cc(C)c(-n2cc3sc(NCC(F)F)nc3n2)c(O)c1 [Example 146, 2-{5-[(2,2-difluoroethyl)amino]-2H-pyrazolo[3,4-d][1,3]thiazol-2-yl}-3,5-dimethylphenol]
23 | 0.84 | > 10 | Cc1cc(C)c(-n2cc3sc(NC4(C(F)F)CC4)nc3n2)c(O)c1 [Example 147, 2-(5-{[1-(difluoromethyl)cyclopropyl]amino}-2H-pyrazolo[3,4-d][1,3]thiazol-2-yl)-3,5-dimethylphenol]
24 | 0.13 | > 30 | Cc1cc(O)c(-n2cc3sc(NCC(C)(C)O)nc3n2)c(C2CC2(F)F)c1 (centres unmarked) [Example 148]
25 | 0.066 | > 30 | Cc1cc(O)c(-n2cc3sc(NC45CCC(O)(CC4)C5)nc3n2)c(C2CC2(F)F)c1 (centres unmarked) [Example 149, 4-({2-[2-(2,2-difluorocyclopropyl)-6-hydroxy-4-methylphenyl]-2H-pyrazolo[3,4-d][1,3]thiazol-5-yl}amino)bicyclo[2.2.1]heptan-1-ol]
26 | 0.12 | > 10 | CCc1cc(C)cc(O)c1-n1cc2sc(NC34CCC(O)(CC3)C4)nc2n1 [Example 150, 4-{[2-(2-ethyl-6-hydroxy-4-methylphenyl)-2H-pyrazolo[3,4-d][1,3]thiazol-5-yl]amino}bicyclo[2.2.1]heptan-1-ol]
27 | 6.8 | > 10 | Cc1cc(C)c(-n2cc3sc(NC4C5CC6CC4CC(O)(C6)C5)nc3n2)c(O)c1 (centres unmarked) [Example 151, 4-{[2-(2-hydroxy-4,6-dimethylphenyl)-2H-pyrazolo[3,4-d][1,3]thiazol-5-yl]amino} adamantan-1-ol]
28 | 0.28 | > 30 | Cc1cc(C)c(-n2cc3sc(NCC(F)(F)CO)nc3n2)c(O)c1 [Example 152, 2-{5-[(2,2-difluoro-3-hydroxypropyl)amino]-2H-pyrazolo[3,4-d][1,3]thiazol-2-yl}-3,5-dimethylphenol]
29 | 0.27 | > 30 | Cc1cc(C)c(-n2cc3sc(N[C@@H]4CCN(C(=O)OC5CC5)C4)nc3n2)c(O)c1 [Example 153, cyclopropyl (3R)-3-{[2-(2-hydroxy-4,6-dimethylphenyl)-2H-pyrazolo[3,4-d][1,3]thiazol-5-yl]amino}pyrrolidine-1-carboxylate]
30 | 1.9 | > 30 | Cc1cc(C)c(-n2cc3sc(N[C@H]4CCN(C(=O)OC5CC5)C4)nc3n2)c(O)c1 [Example 154, cyclopropyl (3S)-3-{[2-(2-hydroxy-4,6-dimethylphenyl)-2H-pyrazolo[3,4-d][1,3]thiazol-5-yl]amino}pyrrolidine-1-carboxylate]
31 | 0.34 | > 30 | COC(=O)N1CC[C@@H](Nc2nc3nn(-c4c(C)cc(C)cc4O)cc3s2)C1 [Example 155, methyl (3R)-3-{[2-(2-hydroxy-4,6-dimethylphenyl)-2H-pyrazolo[3,4-d][1,3]thiazol-5-yl]amino}pyrrolidine-1-carboxylate]
